Measurements: US20260217701A1, “SELECTIVE BET INHIBITORS AND USES THEREOF” (Tay Therapeutics Limited, priority 2022, published 2026)
Several values for one entry are separate records, joined by “and”; a condition that tells them apart may be missing. Equal entries are not always repeated.

Tested on: imiquimod-induced psoriasis
Assay: Imiquimod-induced psoriasis model
Format: in vivo, mice
Set-up: Spleen Weight / Spleen Weight Ratio: unit not given here
Conditions: for PASI Scores: IMI + Clobetasol 0.05%; for Mean scores of the presence of erythema on the skin of animals at the area of induction of psoriasis / Mean scores of the presence of induration on the skin of animals at the area of induction of psoriasis / Mean scores of the presence of peeling on the skin of animals at the area of induction of psoriasis: mean ± SEM
Excerpt: Imiquimod-induced psoriasis is a model of psoriasis in mice that induces psoriasis-like dermatitis. The pathology closes resembles human plaque-type psoriasis and is a valuable tool for testing new therapies against psoriasis. […] Compound A was formulated in a 5% DMSO/40% PEG-400/55% (0.9% NaCl w/v water) solution (Table 2F). Experimental groups for the study are outlined in Table 4. Prior to study initiation, the backs of all animals in the study were depilated to allow for induction of psoriasis and monitoring of disease progression.
Once assigned to experimental groups, on Day 1 and continuing through Day 14, topical imiquimod (IMI; Aldara™ containing 5% Imiquimod) was administered to the dorsal depilated animals, and animals in group 1 received topical administration of Excipial® hydrocream (65 mg). […] Clobetasol was applied topically for animals in group 11.
Body weights were recorded three times a week from Day 1 to Day 8, and daily from Day 8 until the study end at Day 15. At termination on D15 the spleen weight ratio was determined. Disease severity was assessed using the psoriasis area severity index (PASI) daily from Day 8 until study completion on Day 15. The PASI score was calculated based on three parameters (presence of erythema, induration of the skin, and peeling of the skin at the area of induction) on a scale of 0 to 4 (0=no more or absence, 1=low, 2=moderate, 3=high, 4=severe). The PASI score for each animal was calculated as the sum of the score of each parameter measured. The score of the use of enrichment (SUE) was also assessed daily from Day 8 to Day 15. At study completion on Day 15, animal behavior was evaluated using an open field to assess distance travelled, number scratching, and licking and rearing performed in 10 minutes. Upon study termination animals were sacrificed, the spleen was excised and weighed, and blood samples were collected. Serum was isolated from the blood sample for cytokine and other biomarker analysis. IL-1B, IL-6, IL-17, and TNF-α assayed using simple plex technique on an ELLA automated immunoassay system. IL-22 and IL-23 were assayed by ELISA.
The imiquimod-induced model of psoriasis was used to assess the efficacy of Compound A in treating psoriasis. […] Treatment started on Day 8 after induction so reference to day 1 of treatment is to Day 8 and day 7 of treatment is to Day 14.

[1] = IMI-psoriasis model, behavioral evaluation D15, 0.05%, individual animals
[2] = IMI-psoriasis model, behavioral evaluation, 0.05%, individual animals
[3] = IMI-psoriasis model, mice, 0.05%, individual animals
[4] = IMI + 0.05%, D8 (before start of treatment)

## C[C@H]1C[C@H]2[C@@H]3CCC4=CC(=O)C=C[C@]4(C)[C@@]3(F)[C@@H](O)C[C@]2(C)[C@@]1(O)C(=O)CCl [Clobetasol, reference compound]
IMI + 0.05%, Day 1 (before treatment start on Day 8), individual animals
  Body Weight D1: 17.07 and 17.52 and 19.31 and 18.57 and 18.72 and 16.56 and 17.64 and 16.77
IMI + 0.05%, Day 3 (before treatment start on Day 8), individual animals
  Body Weight D3: 14.93 and 16.02 and 17.76 and 17.57 and 17.77 and 14.09 and 14.81 and 14.86
IMI + 0.05%, Day 5 (before treatment start on Day 8), individual animals
  Body Weight D5: 16.15 and 15.56 and 18.21 and 17.74 and 16.72 and 15.29 and 15.64 and 15.11
IMI + 0.05%, Day 7 (before treatment start on Day 8), individual animals
  Body Weight D7: 15.51 and 15.49 (2×) and 18.30 and 17.72 and 17.41 and 15.14 and 16.24
IMI + 0.05%, Day 8 (first day of treatment), individual animals
  Body Weight D8: 15.82 and 15.39 and 18.05 and 17.68 and 16.64 and 14.96 and 16.14 and 14.67
IMI + 0.05%, Day 9, individual animals
  Body Weight D9: 15.95 and 14.96 and 17.53 and 16.98 and 15.65 and 14.35 and 14.99 and 14.71
IMI + 0.05%, Day 10, individual animals
  Body Weight D10: 15.11 and 14.48 and 17.43 and 16.38 and 15.37 and 14.04 and 14.71 and 14.32
IMI + 0.05%, Day 11, individual animals
  Body Weight D11: 15.27 and 14.85 and 17.41 and 16.38 and 15.58 and 13.84 and 14.92 and 14.21
IMI + 0.05%, Day 12, individual animals
  Body Weight D12: 14.64 and 14.74 and 17.02 and 15.95 and 15.45 and 13.69 and 15.73 and 14.31
IMI + 0.05%, Day 13, individual animals
  Body Weight D13: 14.45 and 14.82 and 16.74 and 15.71 and 15.24 and 13.39 and 14.65 and 14.05
IMI + 0.05%, Day 14, individual animals
  Body Weight D14: 14.55 and 14.89 and 16.65 and 15.49 and 15.08 and 13.55 and 14.66 and 14.04
IMI + 0.05%, Day 15, individual animals
  Body Weight D15: 14.30 and 14.75 and 16.22 and 15.41 and 14.99 and 13.32 and 14.54 and 14.22
IMI + 0.05%, body weight change Day 1 to Day 8 (before treatment), individual animals
  MBWC D1-D8: −1.25 and −2.13 and −1.26 and −0.89 and −2.08 and −1.60 and −1.50 and −2.10
IMI + 0.05%, body weight change Day 8 to Day 15 (treatment period), individual animals
  MBWC D8-D15: −1.52 and −0.64 and −1.83 and −2.27 and −1.65 and −1.64 and −1.60 and −0.45
D8 (day treatment started), individual animals
  PASI Scores: 7 (5×) and 8 (3×)
D9, individual animals
  PASI Scores: 6 (2×) and 4 (4×) and 5 (2×)
D10, individual animals
  PASI Scores: 3 (5×) and 2 (2×) and 4
D11, individual animals
  PASI Scores: 0 (5×) and 1 and 2 (2×)
D12, individual animals
  PASI Scores: 1 (6×) and 0 (2×)
D13, individual animals
  PASI Scores: 1 (3×) and 0 (5×)
D14, individual animals
  PASI Scores: 0 (7×) and 1
D15, individual animals
  PASI Scores: 0 (7×) and 1
IMI-psoriasis model, D1, 0.05%, per cage (two animals)
  Use Enrichment D1: 4.0
IMI-psoriasis model, D9, 0.05%, per cage (two animals)
  Use Enrichment D9: 2.0 and 1.5 and 1.0
IMI-psoriasis model, D10, 0.05%, per cage (two animals)
  Use Enrichment D10: 4.0 and 3.5 and 3.0
IMI-psoriasis model, D11, 0.05%, per cage (two animals)
  Use Enrichment D11: 4.0 and 3.0
IMI-psoriasis model, D13, 0.05%, per cage (two animals)
  Use Enrichment D13: 4.0 and 3.5
IMI-psoriasis model, D14, 0.05%, per cage (two animals)
  Use Enrichment D14: 4.0
IMI-psoriasis model, D15, 0.05%, per cage (two animals)
  Use Enrichment D15: 4.0
[1]
  Number Licking: 1 (2×) and 2 (4×) and 5 (2×)
  Number Licking + Scratching: 1 (2×) and 2 (4×) and 5 (2×)
  Number Scratching: 0
[2]
  Distance Traveled: 9 m (2×) and 5 m and 10 m (3×) and 15 m and 16 m
  Number Rearings: 10 and 6 (2×) and 31 and 19 and 4 and 39 and 25
IMI-psoriasis model, mean D1-D8, 0.05%, per cage (two animals)
  Use Enrichment Mean D1-D8: 2.50 and 2.75 and 2.25
IMI-psoriasis model, mean D8-D15, 0.05%, per cage (two animals)
  Use Enrichment Mean D8-D15: 3.71 and 3.50 and 2.86 and 3.14
[3]
  Spleen Weight: 39.92 and 30.38 and 50.46 and 44.29 and 37.25 and 36.61 and 35.08 and 34.69
  Spleen Weight Ratio: 279.16 and 205.97 and 311.10 and 287.41 and 248.50 and 274.85 and 241.27 and 243.95
[4]
  Mean scores of the presence of erythema on the skin of animals at the area of induction of psoriasis: 2.3 ± 0.2
  Mean scores of the presence of induration on the skin of animals at the area of induction of psoriasis: 2.8 ± 0.2
  Mean scores of the presence of peeling on the skin of animals at the area of induction of psoriasis: 2.4 ± 0.2
IMI + 0.05%, D9
  Mean scores of the presence of erythema on the skin of animals at the area of induction of psoriasis: 1.8 ± 0.2
  Mean scores of the presence of induration on the skin of animals at the area of induction of psoriasis: 1.3 ± 0.2
  Mean scores of the presence of peeling on the skin of animals at the area of induction of psoriasis: 1.8 ± 0.3
IMI + 0.05%, D10
  Mean scores of the presence of erythema on the skin of animals at the area of induction of psoriasis: 1.0 ± 0.2
  Mean scores of the presence of induration on the skin of animals at the area of induction of psoriasis: 1.0 ± 0.0
  Mean scores of the presence of peeling on the skin of animals at the area of induction of psoriasis: 0.9 ± 0.1
IMI + 0.05%, D11
  Mean scores of the presence of erythema on the skin of animals at the area of induction of psoriasis: 0.3 ± 0.2
  Mean scores of the presence of induration on the skin of animals at the area of induction of psoriasis: 0.0 ± 0.0
  Mean scores of the presence of peeling on the skin of animals at the area of induction of psoriasis: 0.4 ± 0.2
IMI + 0.05%, D12
  Mean scores of the presence of erythema on the skin of animals at the area of induction of psoriasis: 0.0 ± 0.0
  Mean scores of the presence of induration on the skin of animals at the area of induction of psoriasis: 0.0 ± 0.0
  Mean scores of the presence of peeling on the skin of animals at the area of induction of psoriasis: 0.8 ± 0.2
IMI + 0.05%, D13
  Mean scores of the presence of erythema on the skin of animals at the area of induction of psoriasis: 0.0 ± 0.0
  Mean scores of the presence of induration on the skin of animals at the area of induction of psoriasis: 0.0 ± 0.0
  Mean scores of the presence of peeling on the skin of animals at the area of induction of psoriasis: 0.4 ± 0.2
IMI + 0.05%, D14
  Mean scores of the presence of erythema on the skin of animals at the area of induction of psoriasis: 0.0 ± 0.0
  Mean scores of the presence of induration on the skin of animals at the area of induction of psoriasis: 0.0 ± 0.0
  Mean scores of the presence of peeling on the skin of animals at the area of induction of psoriasis: 0.1 ± 0.1
IMI + 0.05%, D15
  Mean scores of the presence of erythema on the skin of animals at the area of induction of psoriasis: 0.0 ± 0.0
  Mean scores of the presence of induration on the skin of animals at the area of induction of psoriasis: 0.0 ± 0.0
  Mean scores of the presence of peeling on the skin of animals at the area of induction of psoriasis: 0.1 ± 0.1
mice, IMI + 0.05%, D8 (before start of treatment)
  Mean PASI Scores in IMI-Psoriasis Model: 7.4 ± 0.2
mice, IMI + 0.05%, D9
  Mean PASI Scores in IMI-Psoriasis Model: 4.8 ± 0.3
mice, IMI + 0.05%, D10
  Mean PASI Scores in IMI-Psoriasis Model: 2.8 ± 0.2
mice, IMI + 0.05%, D11
  Mean PASI Scores in IMI-Psoriasis Model: 0.6 ± 0.3
mice, IMI + 0.05%, D12
  Mean PASI Scores in IMI-Psoriasis Model: 0.8 ± 0.2
mice, IMI + 0.05%, D13
  Mean PASI Scores in IMI-Psoriasis Model: 0.4 ± 0.2
mice, IMI + 0.05%, D14
  Mean PASI Scores in IMI-Psoriasis Model: 0.1 ± 0.1
mice, IMI + 0.05%, D15
  Mean PASI Scores in IMI-Psoriasis Model: 0.1 ± 0.1
